Test results from the supplement of paper PMC6045584.
± gives the standard deviation of the averaged measurements.

Experiments:
MLN-4924 = compound: NS(=O)(=O)OC[C@@H]1C[C@@H](n2ccc3c(N[C@H]4CCc5ccccc54)ncnc32)C[C@@H]1O [MLN-4924]; assay: surviving fraction relative to DMSO-only wells; higher = less growth inhibition; conditions: exposure time: 5 days
How it was run: (§1)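 Lines were retained only if, across three screens, replicate Pearson r was >0.7 and median Z' was >0.3. Viability was measured as CellTiter-Glo luminescence and reported as surviving fraction relative to the median of DMSO-only wells. Readings followed 10 minutes at room temperature, after log-phase tumour cells seeded at 250–500 per well in 384-well plates had been exposed, from 24 hours after seeding, continuously for five days to inhibitors at 0.5, 1, 5, 10, 50, 100, 500 and 1000 nM.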

TEMOZOLOMIDE = compound: Cn1nnc2c(C(N)=O)ncn2c1=O [TEMOZOLOMIDE]; assay: as above; conditions: exposure time: 5 days
How it was run: as §1

| Test System | surviving fraction (MLN-4924; 0.5 nM) | surviving fraction (MLN-4924; 1 nM) | surviving fraction (MLN-4924; 5 nM) | surviving fraction (MLN-4924; 10 nM) | surviving fraction (MLN-4924; 50 nM) | surviving fraction (MLN-4924; 100 nM) | surviving fraction (MLN-4924; 500 nM) | surviving fraction (MLN-4924; 1000 nM) | surviving fraction (TEMOZOLOMIDE; 0.5 nM) | surviving fraction (TEMOZOLOMIDE; 1 nM) | surviving fraction (TEMOZOLOMIDE; 5 nM) | surviving fraction (TEMOZOLOMIDE; 10 nM) | surviving fraction (TEMOZOLOMIDE; 50 nM) | surviving fraction (TEMOZOLOMIDE; 100 nM) | surviving fraction (TEMOZOLOMIDE; 500 nM) | surviving fraction (TEMOZOLOMIDE; 1000 nM) |
| --- | --- | --- | --- | --- | --- | --- | --- | --- | --- | --- | --- | --- | --- | --- | --- | --- |
| PCI30 HEADNECK | 1.01 ± 0.028 | 1.01 ± 0.072 | 1.04 ± 0.023 | 0.939 ± 0.027 | 0.724 ± 0.028 | 0.701 ± 0.056 | 0.414 ± 0.015 | 0.377 ± 0.019 | 0.957 ± 0.026 | 0.976 ± 0.067 | 0.988 ± 0.023 | 1.04 ± 0.043 | 1.07 ± 0.047 | 1.05 ± 0.041 | 0.937 ± 0.013 | 0.939 ± 0.03 |
| SYO1 SYNOVIAL | 0.996 ± 0.05 | 0.996 ± 0.029 | 1.01 ± 0.039 | 0.992 ± 0.03 | 0.65 ± 0.019 | 0.334 ± 0.028 | 0.0614 ± 0.0023 | 0.0519 ± 0.0031 | 0.971 ± 0.041 | 1.04 ± 0.064 | 0.965 ± 0.0099 | 1.01 ± 0.048 | 0.986 ± 0.059 | 1.01 ± 0.048 | 0.99733 ± 0.00067 | 1.03 ± 0.016 |
| A549 LUNG | 1.061 ± 0.0093 | 1.05 ± 0.034 | 1.04 ± 0.023 | 1 ± 0.034 | 1.11 ± 0.041 | 1.1 ± 0.024 | 0.781 ± 0.011 | 0.417 ± 0.044 | 1.03 ± 0.0082 | 1.03 ± 0.04 | 1.03 ± 0.037 | 1.06 ± 0.013 | 1.03 ± 0.024 | 1.04 ± 0.032 | 1.04 ± 0.044 | 1.06 ± 0.047 |
| HELA CERVIX | 1.12 ± 0.038 | 1.07 ± 0.06 | 1.1 ± 0.052 | 1 ± 0.022 | 1.16 ± 0.086 | 1.17 ± 0.1 | 0.718 ± 0.055 | 0.611 ± 0.027 | 1.04 ± 0.058 | 1.08 ± 0.09 | 1.04 ± 0.019 | 1.12 ± 0.078 | 1.07 ± 0.02 | 1.16 ± 0.084 | 1.07 ± 0.031 | 1.16 ± 0.072 |
| SJSA1 BONE | 0.247 ± 0.017 | 1.7 ± 0.13 | 1.68 ± 0.098 | 1.57 ± 0.046 | 1.64 ± 0.17 | 1.8 ± 0.063 | 1.62 ± 0.033 | 1.73 ± 0.071 | 0.368 ± 0.017 | 1.72 ± 0.054 | 1.64 ± 0.088 | 1.5 ± 0.13 | 1.69 ± 0.041 | 1.64 ± 0.077 | 1.66 ± 0.084 | 1.7 ± 0.11 |
| HCC1806 BREAST | 0.949 ± 0.094 | 1.02 ± 0.089 | 0.907 ± 0.074 | 0.395 ± 0.02 | 0.0957 ± 0.0076 | 0.0527 ± 0.0076 | 0.031 | 0.029 ± 0.0017 | 1 ± 0.043 | 1.083 ± 0.0076 | 1.19 ± 0.052 | 1.07 ± 0.081 | 1.12 ± 0.086 | 1.09 ± 0.034 | 1.05 ± 0.16 | 1.12 ± 0.11 |
| MDAMB361 BREAST | 0.894 ± 0.12 | 0.785 ± 0.028 | 0.829 ± 0.051 | 0.853 ± 0.1 | 0.735 ± 0.048 | 0.736 ± 0.061 | 0.594 ± 0.03 | 0.549 ± 0.042 | 0.914 ± 0.14 | 0.93 ± 0.017 | 0.917 ± 0.15 | 0.889 ± 0.1 | 0.983 ± 0.16 | 0.925 ± 0.037 | 0.945 ± 0.1 | 0.908 ± 0.042 |
| HCT15 LARGE INTESTINE | 1.06 ± 0.015 | 1.05 ± 0.095 | 1.07 ± 0.042 | 1.08 ± 0.065 | 0.966 ± 0.11 | 0.906 ± 0.11 | 0.299 ± 0.065 | 0.166 ± 0.041 | 1.014 ± 0.0029 | 1.029 ± 0.0053 | 0.999 ± 0.055 | 1.02 ± 0.053 | 1.02 ± 0.045 | 1.08 ± 0.05 | 1.04 ± 0.063 | 1.09 ± 0.062 |
| SCC003 HEADNECK | 1.14 ± 0.039 | 1.1 ± 0.016 | 1.11 ± 0.028 | 1.11 ± 0.048 | 1.11 ± 0.14 | 0.988 ± 0.041 | 0.526 ± 0.037 | 0.375 ± 0.037 | 1.05 ± 0.077 | 1.04 ± 0.059 | 1.08 ± 0.072 | 1.15 ± 0.073 | 1.06 ± 0.034 | 1.1 ± 0.071 | 1.07 ± 0.057 | 1.09 ± 0.036 |
| MHM BONE | 0.973 ± 0.011 | 0.995 ± 0.024 | 1.04 ± 0.035 | 1.09 ± 0.038 | 1.37 ± 0.02 | 1.36 ± 0.015 | 0.39 ± 0.042 | 0.286 ± 0.015 | 0.9827 ± 0.0021 | 0.975 ± 0.007 | 1.01 ± 0.043 | 1.04 ± 0.014 | 0.998 ± 0.042 | 1.03 ± 0.029 | 0.973 ± 0.032 | 0.998 ± 0.0056 |
| SG43 HEADNECK | 1.15 ± 0.29 | 1 ± 0.32 | 1.02 ± 0.26 | 1.15 ± 0.18 | 0.885 ± 0.19 | 1.11 ± 0.15 | 0.463 ± 0.094 | 0.223 ± 0.087 | 1.11 ± 0.065 | 0.96 ± 0.1 | 0.768 ± 0.047 | 0.882 ± 0.087 | 0.742 ± 0.18 | 0.895 ± 0.24 | 0.895 ± 0.11 | 1.14 ± 0.46 |
| MDAMB134 BREAST | 0.904 ± 0.21 | 1.036 ± 0.0099 | 0.934 ± 0.12 | 0.731 ± 0.1 | 0.562 ± 0.14 | 0.393 ± 0.03 | 0.267 ± 0.0035 | 0.281 ± 0.005 | 0.928 ± 0.0085 | 0.981 ± 0.033 | 0.926 ± 0.14 | 0.902 ± 0.15 | 0.975 ± 0.23 | 1.05 ± 0.17 | 0.953 ± 0.2 | 1.11 ± 0.08 |
| SG27 HEADNECK | 1.07 ± 0.041 | 1.1 ± 0.12 | 1.11 ± 0.055 | 1.16 ± 0.13 | 0.991 ± 0.17 | 0.823 ± 0.076 | 0.618 ± 0.098 | 0.322 ± 0.055 | 1.13 ± 0.058 | 1.1 ± 0.11 | 1.02 ± 0.054 | 1.09 ± 0.019 | 1.04 ± 0.061 | 1.16 ± 0.14 | 1.22 ± 0.048 | 1.21 ± 0.15 |
| OS25HAL BONE | 1.05 ± 0.029 | 1.05 ± 0.017 | 1.11 ± 0.034 | 0.982 ± 0.02 | 0.773 ± 0.041 | 0.533 ± 0.06 | 0.181 ± 0.01 | 0.102 ± 0.016 | 1.02 ± 0.037 | 1.09 ± 0.031 | 1.06 ± 0.019 | 1.11 ± 0.023 | 1.02 ± 0.033 | 1.09 ± 0.03 | 1.07 ± 0.051 | 1.08 ± 0.041 |
| NY BONE | 1.05 ± 0.024 | 1.03 ± 0.02 | 1.18 ± 0.036 | 1.2 ± 0.04 | 0.82 ± 0.073 | 0.48 ± 0.0085 | 0.289 ± 0.0061 | 0.232 ± 0.0095 | 1.01 ± 0.033 | 1.05 ± 0.018 | 1.01 ± 0.066 | 1.09 ± 0.035 | 1.063 ± 0.004 | 1.09 ± 0.029 | 1.014 ± 0.0032 | 1.02 ± 0.013 |
| KPD BONE | 0.9553 ± 0.0032 | 0.985 ± 0.028 | 1.04 ± 0.057 | 1.09 ± 0.094 | 0.921 ± 0.045 | 0.736 ± 0.048 | 0.239 ± 0.017 | 0.183 ± 0.022 | 0.925 ± 0.022 | 0.955 ± 0.091 | 1.11 ± 0.079 | 1.01 ± 0.024 | 1.06 ± 0.088 | 1.074 ± 0.0076 | 0.983 ± 0.1 | 0.977 ± 0.043 |
| SNU475 LIVER | 0.976 ± 0.031 | 1.04 ± 0.031 | 1.04 ± 0.023 | 1.04 ± 0.062 | 1.12 ± 0.059 | 1.08 ± 0.046 | 0.663 ± 0.036 | 0.53 ± 0.012 | 1.004 ± 0.0081 | 1.01 ± 0.025 | 1.01 ± 0.051 | 1.04 ± 0.036 | 1.01 ± 0.034 | 1.06 ± 0.047 | 1.05 ± 0.053 | 1.03 ± 0.022 |
| JURKAT HAEMATOPOIETIC AND LYMPHOID TISSUE | 1.07 ± 0.016 | 1.02 ± 0.032 | 1.01 ± 0.025 | 0.931 ± 0.025 | 0.371 ± 0.012 | 0.154 ± 0.0059 | 0.0333 ± 0.00058 | 0.0313 ± 0.00058 | 1.06 ± 0.019 | 1.08 ± 0.024 | 1.05 ± 0.032 | 1.05 ± 0.02 | 1.04 ± 0.029 | 1.01 ± 0.029 | 1.02 ± 0.02 | 1.04 ± 0.013 |
| MDAMB468 BREAST | 1.15 ± 0.068 | 1.09 ± 0.062 | 1.13 ± 0.1 | 1.04 ± 0.11 | 0.436 ± 0.0053 | 0.302 ± 0.05 | 0.18 ± 0.0087 | 0.178 ± 0.021 | 0.983 ± 0.086 | 1.13 ± 0.045 | 1.114 ± 0.0027 | 1.17 ± 0.075 | 1.09 ± 0.07 | 1.15 ± 0.045 | 1.03 ± 0.1 | 1.12 ± 0.091 |
| HSSYII SYNOVIAL | 1.01 ± 0.14 | 1 ± 0.078 | 0.965 ± 0.033 | 0.992 ± 0.071 | 0.286 ± 0.012 | 0.166 ± 0.008 | 0.0248 ± 0.001 | 0.0283 ± 0.002 | 0.958 ± 0.033 | 0.957 ± 0.061 | 0.965 ± 0.039 | 0.998 ± 0.051 | 1.02 ± 0.024 | 0.9798 ± 0.0033 | 0.981 ± 0.035 | 0.956 ± 0.04 |
| NCIH441 LUNG | 1.08 ± 0.077 | 1.15 ± 0.099 | 1.11 ± 0.087 | 1.12 ± 0.03 | 1.01 ± 0.051 | 0.846 ± 0.11 | 0.431 ± 0.033 | 0.414 ± 0.022 | 1.07 ± 0.065 | 1.14 ± 0.06 | 1.21 ± 0.059 | 1.06 ± 0.066 | 1.04 ± 0.081 | 1.13 ± 0.074 | 1.11 ± 0.086 | 1.19 ± 0.058 |
